# What was measured:
# [1] = tested on: RSV Long strain (ATCC VR-26); assay: Viral cytopathic effect (CPE) assay; format: cell-based; settings: human respiratory syncytial virus, 120 h, cell viability after 5 days (Cell Counting kit-8)
# Method: EC50: the concentration of a compound where 50% of its maximal protection effect against viral induced CPE is observed LongStrain: a subtype RSV strain obtained from ATCC with catalog number VR-26 To measure anti-RSV activity of compounds, 96-well plates were seeded with 6×10^3 cells per well in Dulbecco's modified Eagle's medium (DMEM) containing 10% fetal bovine serum (FBS). Cells were infected the next day with sufficient RSV Long strain (ATCC) to produce an approximately 80-90% cytopathic effect after 5 days, in the presence of serial half-log diluted compound in a total volume of 200 μL per well. The viability of cells is assessed after 5 days using Cell Counting kit-8 (Dojindo Molecular Technologies). The absorbance at 450 nm and referenced at 630 nm is measured to determine 50% effective concentration (EC50).
# RSV = settings: two separate Phase III clinical trials, selected high-risk infants, prophylactic use; cited from earlier work
EC50 [1],Compound,reduction in hospitalization rate (RSV)
0.78 µM,"COc1cc(-c2noc(-c3cn(-c4ccccc4Br)c(C)n3)n2)cc(OC)c1OC [Example 1-1, 5-(1-(2-Bromophenyl)-2-methyl-1H-imidazol-4-yl)-3-(3,4,5-trimethoxyphenyl)-1,2,4-oxadiazole]",
0.6 µM,"COc1cc(-c2noc(-c3ncn(-c4ccccc4Br)c3C)n2)cc(OC)c1OC [Example 1-2, 5-[1-(2-Bromo-phenyl)-5-methyl-1H-imidazol-4-yl]-3-(3,4,5-trimethoxy-phenyl)-[1,2,4]oxadiazole]",
0.5 µM,"COc1cc(-c2noc(-c3nc(C)n(-c4ccccc4Br)c3C)n2)cc(OC)c1OC [Example 1-3, 5-(1-(2-Bromophenyl)-2,5-dimethyl-1H-imidazol-4-yl)-3-(3,4,5-trimethoxyphenyl)-1,2,4-oxadiazole]",
4.06 µM,"COC(=O)c1ccc(-c2noc(-c3nc(C)n(-c4ccccc4Cl)c3C)n2)cc1 [Example 1-4, 4-{5-[1-(2-Chloro-phenyl)-2,5-dimethyl-1H-imidazol-4-yl]-[1,2,4]oxadiazol-3-yl}-benzoic acid methyl ester]",
0.51 µM,"COc1cc(-c2noc(-c3ncn(-c4c(C)cccc4C)c3C)n2)cc(OC)c1OC [Example 1-6, 5-(1-(2,6-Dimethylphenyl)-5-methyl-1H-imidazol-4-yl)-3-(3,4,5-trimethoxyphenyl)-1,2,4-oxadiazole]",
0.68 µM,"COc1ccc(OC)c(-c2noc(-c3nc(C)n(-c4ccccc4Br)c3C)n2)c1 [Example 1-7, 5-[1-(2-Bromo-phenyl)-2,5-dimethyl-1H-imidazol-4-yl]-3-(2,5-dimethoxy-phenyl)-[1,2,4]oxadiazole]",
0.193 µM,"COc1ccc(-c2noc(-c3ncn(-c4c(C)cccc4Cl)c3C)n2)c(OC)c1 [Example 1-8, 5-[1-(2-Chloro-6-methyl-phenyl)-5-dimethyl-1H-imidazol-4-yl]-3-(2,4-dimethoxy-phenyl)-[1,2,4]oxadiazole]",
0.22 µM,"COc1cc(-c2noc(-c3ncn(-c4c(C)cccc4Cl)c3C)n2)cc(OC)c1OC [Example 1-9, 5-[1-(2-Chloro-6-methyl-phenyl)-5-methyl-imidazol-4-yl]-3-(3,4,5-trimethoxyphenyl)-1,2,4-oxadiazole]",
2.4 µM,"COc1ccc(-c2noc(-c3ncn(-c4c(C)cccc4C)c3C)n2)cc1 [Example 1-10, 5-(1-(2,6-Dimethylphenyl)-5-methyl-1H-imidazol-4-yl)-3-(4-methoxyphenyl)-1,2,4-oxadiazol]",
5.07 µM,"COc1ccc(-c2noc(-c3nc(C)n(-c4ccccc4Cl)c3C)n2)cc1 [Example 1-11, 5-[1-(2-Chloro-phenyl)-2,5-dimethyl-1H-imidazol-4-yl]-3-(4-methoxy-phenyl)-[1,2,4]oxadiazole]",
0.362 µM,"COc1ccc(-c2noc(-c3ncn(-c4c(C)cccc4C)c3C)n2)c(OC)c1 [Example 1-12, 3-(2,4-Dimethoxy-phenyl)-5-[1-(2,6-dimethyl-phenyl)-5-methyl-1H-imidazol-4-yl]-[1,2,4]oxadiazole]",
2.38 µM,"COC(=O)c1ccc(-c2noc(-c3nc(C)n(-c4ccccc4Cl)c3C)n2)cc1OC [Example 1-13, 4-{5-[1-(2-Chloro-phenyl)-2,5-dimethyl-1H-imidazol-4-yl]-[1,2,4]oxadiazol-3-yl}-2-methoxy-benzoic acid methyl ester]",
0.68 µM,"COc1ccccc1-c1noc(-c2nc(C)n(-c3ccccc3Cl)c2C)n1 [Example 1-14, 5-[1-(2-Chloro-phenyl)-2,5-dimethyl-1H-imidazol-4-yl]-3-(2-methoxy-phenyl)-[1,2,4]oxadiazole]",
1.74 µM,"COc1ccc(-c2noc(-c3ncn(-c4c(C)cccc4Cl)c3C)n2)cc1 [Example 1-15, 5-[1-(2-Chloro-6-methyl-phenyl)-5-methyl-1H-imidazol-4-yl]-3-(4-methoxy-phenyl)-[1,2,4]oxadiazole]",
1.47 µM,"COc1ccc(-c2noc(-c3nc(C)n(-c4ccccc4Cl)c3C)n2)c(OC)c1 [Example 1-16, 5-[1-(2-Chloro-phenyl)-2,5-dimethyl-1H-imidazol-4-yl]-3-(2,4-dimethoxy-phenyl)-[1,2,4]oxadiazole]",
1.81 µM,"COc1ccc(OC)c(-c2noc(-c3nc(C)n(-c4ccccc4Cl)c3C)n2)c1 [Example 1-17, 5-(1-(2-chlorophenyl)-2,5-dimethyl-1H-imidazol-4-yl)-3-(2,5-dimethoxy-phenyl)-1,2,4-oxadiazole]",
1.59 µM,"COc1cc(-c2noc(-c3nc(C)n(-c4ccccc4Cl)c3C)n2)cc(OC)c1OC [Example 1-18, 5-[1-(2-Chloro-phenyl)-2,5-dimethyl-1H-imidazol-4-yl]-3-(3,4,5-trimethoxy-phenyl)-[1,2,4]oxadiazole]",

EC50 [1],Compound,reduction in hospitalization rate (RSV)
0.92 µM,"COC(=O)c1ccc(-c2noc(-c3nc(C)n(-c4ccccc4Cl)c3C)n2)c(OC)c1 [Example 1-19, 4-{5-[1-(2-Chloro-phenyl)-2,5-dimethyl-1H-imidazol-4-yl]-[1,2,4]oxadiazol-3-yl}-3-methoxy-benzoic acid methyl ester]",
2.99 µM,"COc1ccc(-c2noc(-c3nc(C)n(-c4ccccc4Cl)c3C)n2)c(F)c1 [Example 1-20, 5-[1-(2-Chloro-phenyl)-2,5-dimethyl-1H-imidazol-4-yl]-3-(2-fluoro-4-methoxy-phenyl)-[1,2,4]oxadiazole]",
5.31 µM,"COC(=O)c1ccc(-c2noc(-c3nc(C)n(-c4ccccc4Cl)c3C)n2)cc1C [Example 1-21, 4-{5-[1-(2-Chloro-phenyl)-2,5-dimethyl-1H-imidazol-4-yl]-[1,2,4]oxadiazol-3-yl}-2-methyl-benzoic acid methyl ester]",
5.96 µM,"COc1cccc(-c2noc(-c3nc(C)n(-c4ccccc4Cl)c3C)n2)c1 [Example 1-22, 5-[1-(2-Chloro-phenyl)-2,5-dimethyl-1H-imidazol-4-yl]-3-(3-methoxy-phenyl)-[1,2,4]oxadiazole]",
2.08 µM,"COc1ccccc1-n1c(C)nc(-c2nc(-c3cc(OC)c(OC)c(OC)c3)no2)c1C [Example 1-23, 5-[1-(2-Methoxy-phenyl)-2,5-dimethyl-1H-imidazol-4-yl]-3-(3,4,5-trimethoxy-phenyl)-[1,2,4]oxadiazole]",
0.78 µM,"COc1cc(-c2noc(-c3nc(Br)n(-c4ccccc4Cl)c3C)n2)cc(OC)c1OC [Example 1-24, 5-[2-Bromo-1-(2-chloro-phenyl)-5-methyl-1H-imidazol-4-yl]-3-(3,4,5-trimethoxy-phenyl)-[1,2,4]oxadiazole]",
1.28 µM,"COc1cc(-c2noc(-c3ncc(-c4ccccc4Cl)n3C)n2)cc(OC)c1OC [Example 1-25, 5-[5-(2-Chlorophenyl)-1-methyl-imidazol-2-yl]-3-(3,4,5-trimethoxyphenyl)-1,2,4-oxadiazole]",
2.03 µM,"COc1cc(-c2noc(-c3cnc(-c4ccccc4Cl)n3C)n2)cc(OC)c1OC [Example 1-26, 5-[2-(2-Chlorophenyl)-3-methyl-imidazol-4-yl]-3-(3,4,5-trimethoxyphenyl)-1,2,4-oxadiazole]",
1.85 µM,"COc1cc(C(=O)O)ccc1-c1noc(-c2ncn(-c3c(C)cccc3Cl)c2C)n1 [Example 2-1, 4-[5-[1-(2-Chloro-6-methyl-phenyl)-5-methyl-imidazol-4-yl]-1,2,4-oxadiazol-3-yl]-3-methoxy-benzoic acid]",
3.08 µM,"Cc1nc(-c2nc(-c3ccc(C(=O)O)cc3)no2)c(C)n1-c1ccccc1Cl [Example 2-2, 4-{5-[1-(2-Chloro-phenyl)-2,5-dimethyl-1H-imidazol-4-yl]-[1,2,4]oxadiazol-3-yl}-benzoic acid]",
1.97 µM,"COc1cc(C(=O)O)ccc1-c1noc(-c2ncn(-c3c(C)cccc3C)c2C)n1 [Example 2-3, 4-{5-[1-(2,6-Dimethyl-phenyl)-5-methyl-1H-imidazol-4-yl]-[1,2,4]oxadiazol-3-yl}-3-methoxy-benzoic acid]",
0.76 µM,"COc1cc(-c2noc(-c3ncn(-c4c(C)cccc4C)c3C)n2)ccc1C(=O)O [Example 2-4, 4-{5-[1-(2,6-Dimethyl-phenyl)-5-methyl-1H-imidazol-4-yl]-[1,2,4]oxadiazol-3-yl}-2-methoxy-benzoic acid]",
0.59 µM,"COc1cc(-c2noc(-c3ncn(-c4c(C)cccc4Cl)c3C)n2)ccc1C(=O)O [Example 2-5, 4-{5-[1-(2-Chloro-6-methyl-phenyl)-5-methyl-1H-imidazol-4-yl]-[1,2,4]oxadiazol-3-yl}-2-methoxy-benzoic acid]",
1.79 µM,"COc1cc(-c2noc(-c3nc(CO)n(-c4ccccc4Cl)c3C)n2)cc(OC)c1OC [Example 3-1, (1-(2-Chlorophenyl)-5-methyl-4-(3-(3,4,5-trimethoxyphenyl)-1,2,4-oxadiazol-5-yl)-1H-imidazol-2-yl)methanol]",
4.05 µM,"COc1cc(-c2noc(-c3nc(C(=O)O)n(-c4ccccc4Cl)c3C)n2)cc(OC)c1OC [Example 3-2, 1-(2-Chlorophenyl)-5-methyl-4-(3-(3,4,5-trimethoxyphenyl)-1,2,4-oxadiazol-5-yl)-1H-imidazole-2-carboxylic acid]",
,"palivizumab: palivizumab (Synagis, MedImmune), approved for prophylactic use in selected high-risk infants",45-55%

# Source: patent US9790213B2, “Imidazoles for the treatment and prophylaxis of respiratory syncytial virus infection” (Hoffmann-La Roche Inc., priority 2015, dated 2017)
